In US20070116833A1, “High-Potency Sweetener Composition with Calcium and Compositions Sweetened Therewith” (THE COCA-COLA COMPANY, priority 2005, published 2007):

How the values were obtained:
[1] = system: panel of experts in the sensory evaluation of foods and beverages; test: Sensory evaluation of sweetness linger by expert panel; assay type: in vivo; parameters: key: 0: no sweetness linger; 1: very slight sweetness linger; 2: slight sweetness linger; 3: moderate sweetness linger; 4: moderately high sweetness linger; 5: high sweetness linger; settings: for Sweetness Linger rating (defined for controls): ratings defined for the protocol, REBA control sample 500 ppm; for sweetness linger: scale 0-5
Description: Sensory evaluation of the samples prepared in Example Set G was carried out under the following protocol, similar to that described hereinabove. In this test protocol, none of the samples were swallowed. All samples were expectorated and the mouth was rinsed with water after the tasting. Immediately upon sensing maximal sweetness, the sample was expectorated, the mouth was rinsed with water and the rate of sweetness decay (“Sweetness Linger”) was measured, where attention was focused on the sweetness 3-4 min after the water rinse. After sample tasting was complete, a salty oyster cracker was chewed followed by a water rinse, and at least 5 minutes followed before tasting the next sample. The sweetness linger was rated by a panel of experts in the sensory evaluation of foods and beverages using the following scale: 0=no sweetness linger, 1 =very slight sweetness linger, 2 slight sweetness linger, 3=moderate sweetness linger, 4 =moderately high sweetness linger, 5 high sweetness linger.
The “Sweetness Linger” rating for sucrose observed by this protocol is defined as 0. The Sweetness Linger of a 500 ppm of REBA control sample is defined as 5. Experimental samples were tasted by the same protocol, always allowing sufficient time between samples to ensure re-equilibration of the sensory system. Re-tasting of control samples during the course of the experiment was allowed and encouraged.
The comparison taste test was performed between two controls and addition of sweet taste improving additive on the onset and/or sweetness linger.
Sweet taste improving compositions were combined with a REBA solution to determine their effect on sweetness linger. Screening of the initial sample, or further dilutions, allowed identification of concentrations which were just above-threshold, herein defined as “near-threshold concentrations.” The near-threshold additive concentrations, a 6- to 100-fold higher additive concentration (depending on the off-taste intensity), and a mid-level additive concentration (halfway between the near-threshold and higher additive concentration) were evaluated to determine the effect on sweetness linger of a REBA solution. […]
Sensory evaluation using the protocol described in Example Set G then was used to evaluate the sweetness linger of the REBA solutions.

[2] = assay type: physicochemical
Description: A solution of rebaudioside A (>97% pure by HPLC) was prepared in double distilled water (12.5 gm in 50 mL, 25% concentration) by stirring the mixture at 40° C. for 5 minutes. An amorphous form of rebaudioside A was formed by immediately using the clear solution for spray drying with the Lab-Plant spray drier SD-04 instrument (Lab-Plant Ltd., West Yorkshire, U.K.). The solution was fed through the feed pump into the nozzle atomizer which atomized it into a spray of droplets with the help of a constant flow of nitrogen/air. […] This dry powder (11-12 g, H2O 6.74%) was discharged continuously from the drying chamber and was collected in a bottle.

[3] = Rate of dissolution of rebaudioside A polymorphs in H2O; assay type: physicochemical

Compound: OC[C@H]1O[C@@](CO)(O[C@H]2O[C@H](CO)[C@@H](O)[C@H](O)[C@H]2O)[C@@H](O)[C@@H]1O [sugar, sucrose, reference compound]
- Sweetness Linger rating (defined for controls) [1]: 0

Compound: rebaudioside A
- sweetness linger ([1]; Example Set G: 400 ppm REBA in citric acid/potassium citrate composition equivalent to that in a diet lemon-lime beverage, sweetness 3-4 min after water rinse): 5
- sweetness linger ([1]; Example Set H: 500 ppm REBA (H41: 360 ppm) in carbon-treated water, phosphoric acid (75%) to pH 2.4-2.5): 5
- Sweetness Linger rating (defined for controls) [1]: 5

Compound: rebaudioside A [F]
- solubility in water at room temperature [2]: > 35.0%

Compound: rebaudioside A [Form 1]
- Rate of dissolution in H2O at 25° C. [3]: Very low (<0.2%/ %/60 minutes
